Experimental data taken from patent US4097596A, “Inhalation therapy for relieving bronchial spasm using quaternary salts of promethazine” (American Home Products Corporation, priority 1976, dated 1978).
Values joined by “and” are separate entries in the source; they are usually repeats but may differ in a detail not shown here. Equal values may be shown once. Where a name gives a salt, the structure may show the parent alone. Read-outs that look alike come from different tables or passages of the source.

Tests used:
acetylcholine = assay: Inhibition of acetylcholine-induced bronchoconstriction by aerosol, anesthetized guinea pigs; format: in vivo
Procedure: (§1) Anesthetized (Pentobarbitol-urethane) guinea pigs were artificially respired at a constant positive air pressure (Starling miniature pump) and changes in tidal air during inspiration were recorded, according to the method of Rosenthale et al., Int. Arch. Pharmacol., 172, 91 (1968). The bronchoconstrictor agents acetylcholine and histamine were administered intravenously at doses of 1 to 30 μg/kg. depending on each animal's sensitivity to these compounds, and control responses to acetylcholine and histamine were thus established. Bronchoconstrictor agents raise the resistance of the lungs to inflation thereby decreasing the tidal air flow. A solution of the test compound was then administered by aerosol, in physiological saline or distilled water, and the animals were then challenged again with acetylcholine or histamine and the degree of inhibition of bronchoconstriction by the test compound was thus determined.

histamine = assay: Inhibition of histamine-induced bronchoconstriction by aerosol, anesthetized guinea pigs; format: in vivo
Procedure: as §1

[1] = test system: cholinergic-induced bronchoconstriction; assay: Effect of drugs on cholinergic-induced bronchoconstriction in the cat (aerosol); format: in vivo; settings: as cation, mean ± S.E.
Procedure: Cats of either sex were anesthetized and respiration was arrested by the administration of an intravenous infusion of 1 mg/ml/min of succinylcholine chloride. The animals were artificially respired with a Harvard pump. A neostigmine methylsulfate solution (0.1 mg/ml) was infused intravenously at a rate of 1 ml/min until maximal or complete bronchoconstriction occurred, but the experiment was not begun until a stable state was attained. The respiratory flow was measured with a Fleisch pneumotachograph and a differential pressure transducer. Transpulmonary pressure was measured with a differential pressure transducer bridged between the trachea and the intrapleural space. Pulmonary airway resistance and compliance was measured by a modification of the Mead & Whittenberger electronic subtraction method using the Hewlett-Packard respiratory pre-amplifier or the isovolumetric method using the Buxco Pulmonary mechanics computer [Rosenthale et al., J. Pharmacol. Exp. Ther., 178, 541, (1971)].
Drugs were administered as cation as an aerosol by means of a Monaghan ultrasonic nebulizer. The dosage was varied by adjusting the concentration of the solution. Activity was measured by the ability of the drug to reverse the increased airway resistance and decreased compliance characteristic of cholinergic stimulation induced by succinylcholine and neostigmine.

[2] = cited from earlier work
smooth muscle = settings: cited from earlier work
[3] = 0.15 μg as cation, distilled water
[4] = 1.5 μg as cation, distilled water
[5] = 15.0 μg as cation, distilled water
[6] = 15.0 μg as cation, physiological saline
[7] = 0.1 μg, listed as Promethazine methyl chloride
[8] = 1.0 μg, listed as Promethazine methyl chloride
[9] = 10.0 μg, listed as Promethazine methyl chloride
[10] = 100.0 μg, listed as Promethazine methyl chloride
[11] = 1.5 μg as cation, physiological saline
[12] = 0.1 μg, listed as Promethazine methyl iodide
[13] = 1.0 μg, listed as Promethazine methyl iodide
[14] = 10.0 μg, listed as Promethazine methyl iodide
[15] = 100.0 μg, listed as Promethazine methyl iodide

SMILES | Mean % Inhibition (±S.E.) vs. Acetylcholine (acetylcholine; [3]) | Mean % Inhibition (±S.E.) vs. Acetylcholine (acetylcholine; [4]) | Mean % Inhibition (±S.E.) vs. Acetylcholine (acetylcholine; [5]) | Mean % Inhibition (±S.E.) vs. Histamine (histamine; [5]) | Mean % Inhibition (±S.E.) vs. Acetylcholine (acetylcholine; [6]) | Mean % Inhibition (±S.E.) vs. Histamine (histamine; [6]) | further results
CC[N+](C)(C)C(C)CN1c2ccccc2Sc2ccccc21 (racemic) [C2 H 5 / I, dl-N-Ethyl-N,N,α-Trimethyl-10H-Phenothiazine-10-Ethanaminium Iodide] | 20.0 (7.70) % | 62.75 (10.63) % | 98.66 (1.33) % | 78.67 (8.74) % |  |  | 
CC(CN1c2ccccc2Sc2ccccc21)[N+](C)(C)C (racemic) [CH3 / Br, dl-Trimethyl[1-Methyl-2-(Phenothiazin-10-yl)Ethyl]Ammonium Bromide] | 0% | 38.75 (9.26) % | 99.0 (1.0) % |  |  |  | 
CC(CN1c2ccccc2Sc2ccccc21)[N+](C)(C)C (racemic) [CH3 / CH3 SO4, dl-Trimethyl[1-Methyl-2-(Phenothiazine-10-yl)Ethyl]Ammonium Methyl Sulfate] |  |  |  |  | 86% | 98% | 
CC(CN1c2ccccc2Sc2ccccc21)[N+](C)(C)C (racemic) [CH3 / Cl, dl-Trimethyl[1-Methyl-2-(Phenothiazin-10-yl)Ethyl]Ammonium Chloride] |  | 24.25 (10.21) % and 26.67 (6.77) % | 86.3 (10.37) % and 100 (0) % | 98.2 (1.8) % |  |  | Pulmonary Compliance % Protection [1, 7]: 6.8±4.1%; Pulmonary Resistance % Protection [1, 7]: 8.8±7.7%; Duration 50% (time to return to 50% of control constricted state) ([1]; 0.1 μg, methyl chloride done in 3 cats, listed as Promethazine methyl chloride): 2.7 ± 1.5 min; Duration 50% (time to return to 50% of control constricted state) [1, 8]: > 10 min; Pulmonary Compliance % Protection [1, 8]: 7.8±4.1%; Pulmonary Resistance % Protection [1, 8]: 17.2±2.8%; Duration 50% (time to return to 50% of control constricted state) [1, 9]: 21.0 ± 4.0 min; Pulmonary Compliance % Protection [1, 9]: 71.4±51.1%; Pulmonary Resistance % Protection [1, 9]: 50.0±4.6%; Duration 50% (time to return to 50% of control constricted state) [1, 10]: > 60 min; Pulmonary Compliance % Protection [1, 10]: 60.8±25.7%; Pulmonary Resistance % Protection [1, 10]: 72.8±2.1%
CC(CN1c2ccccc2Sc2ccccc21)[N+](C)(C)C (racemic) [CH3 / I, dl-trimethyl[1-methyl-2-(phenothiazin-10-yl)ethyl]ammonium iodide] | 20.0 (13.38) % | 47.0 (7.59) % | 98.66 (1.33) % | 98.0 (1.0) % | 99.0 (1.0) % and 99.3 (0.67) % | 97.5% and 98.66 (1.33) % | Mean % Inhibition (±S.E.) vs. Acetylcholine (acetylcholine; [11]): 62.38 (4.67) % and 62.75 (11.89) %; Mean % Inhibition (±S.E.) vs. Histamine (histamine; 0.15 μg as cation, physiological saline): 15.33 (6.96) %; Mean % Inhibition (±S.E.) vs. Histamine (histamine; [11]): 49.0 (11.14) %; Pulmonary Compliance % Protection [1, 12]: 5.8±3.6%; Pulmonary Resistance % Protection [1, 12]: 14.3±1.1%; Duration 50% (time to return to 50% of control constricted state) ([1]; 0.1 μg, methyl chloride done in 3 cats, listed as Promethazine methyl iodide): 6.7 ± 3.2 min; Duration 50% (time to return to 50% of control constricted state) [1, 13]: 11.3 ± 2.0 min; Pulmonary Compliance % Protection [1, 13]: 3.7± .52%; Pulmonary Resistance % Protection [1, 13]: 39.4±2.1%; Duration 50% (time to return to 50% of control constricted state) [1, 14]: 21.2 ± 6.8 min; Pulmonary Compliance % Protection [1, 14]: 15.5±6.0%; Pulmonary Resistance % Protection [1, 14]: 48.5±3.3%; Duration 50% (time to return to 50% of control constricted state) [1, 15]: 46.1 ± 9.7 min; Pulmonary Compliance % Protection [1, 15]: 26.4±4.1%; Pulmonary Resistance % Protection [1, 15]: 78.1±4.4%
CC(CN1c2ccccc2Sc2ccccc21)[N+](C)(C)C (racemic) [CH3 / NO3, dl-Trimethyl[1-Methyl-2-(Phenothiazin-10-yl)Ethyl]Ammonium Nitrate] | 12.0 (6.26) % | 43.5 (10.33) % | 100 (0) % |  |  |  | 
CCC[N+](C)(C)C(C)CN1c2ccccc2Sc2ccccc21 (racemic) [n-C3 H7 / I, dl-N,N,α-Trimethyl-N-n-Propyl-10H-Phenothiazine-10-Ethanaminium Iodide] | 5.5 (3.20) % | 43.75 (6.51) % | 84.0 (6.56) % | 68.0 (8.14) % |  |  | 
CCCC[N+](C)(C)C(C)CN1c2ccccc2Sc2ccccc21 (racemic) [n-C4 H9 / I, dl-N-n-Butyl,N,N,α-Trimethyl-10H-Phenothiazine-10-Ethanaminium Iodide] | 0% | 39.25 (2.53) % | 52.0 (6.35) % | 66.33 (2.96) % |  |  | 
CC(CN1c2ccccc2Sc2ccccc21)[N+](C)(C)C (stereo not drawn) [CH"3 / I, l-Trimethyl[1-Methyl-2-(Phenothiazine-10-yl)Ethyl]Ammonium Iodide] |  |  |  |  | 81% | 95 (4.66) % | 
CC(CN1c2ccccc2Sc2ccccc21)[N+](C)(C)C (stereo not drawn) [CH'3 / I, d-trimethyl[1-methyl-2-(phenothiazin-10-yl)ethyl]ammonium iodide] |  |  |  |  | 97% | 82% | 
Cn1c(=O)c2[nH]cnc2n(C)c1=O [aminophylline] |  |  |  |  |  |  | bronchodilator activity ([2]; aerosol): inactive as a bronchodilator aerosol; bronchial smooth muscle relaxation (smooth muscle; in vitro or by injection in vivo): can relax bronchial smooth muscle in vitro or by injection in vivo
CN[C@@H](C)[C@H](O)c1ccccc1 [ephedrine] |  |  |  |  |  |  | bronchodilator activity ([2]; aerosol): not by aerosol; bronchodilator activity ([2]; oral): orally active bronchodilator; smooth muscle relaxation (smooth muscle): smooth muscle relaxant
CNC[C@H](O)c1ccc(O)c(O)c1 [epinephrine] |  |  |  |  |  |  | smooth muscle relaxation (smooth muscle): smooth muscle relaxant
